Measurements reported in US20240245721A1, “DOUBLE SIDED CHIMERIC ANTIGEN RECEPTOR (CAR) ENGINEERED CELL MEMBRANE BASED DRUG DELIVERY SYSTEMS” (BOARD OF REGENTS, THE UNIVERSITY OF TEXAS SYSTEM, priority 2021, published 2024).
Read-outs that look alike come from different tables or passages of the source.

Assays:
SKOV-3 cells = test: In vitro cytotoxicity (MTT) on SKOV-3; format: cell-based; details: read-out: IC50 (half maximal inhibitory concentration)
Method: (§1) A549, MDA-MB-231 and SKOV-3 cells were seeded (5×10^3 cells/well) in 96-well plates and incubated overnight. Free Afatinib, Afatinib loaded PLGA NPs, anti HER-2 PLGA NPs, Jurkat-T-MNPs, and CAR-T-MNPs were added to the seeded cells (n=4). Alternatively, free cisplatin, cisplatin loaded PLGA NPs, Jurkat-T-MNPs, and CAR-T-MNPs were added to the seeded cells (n=4) at a cisplatin concentration of 7 μM (A549) & 3.5 μM (SKOV-3). After incubation for 48 hours, the absorbance at 490 nm was measured using UV-VIS Spectrophotometer (Tecan) after incubating with MTT reagent (Promega) for one hour. Cell viabilities were calculated via normalizing to the control group (cells exposed to complete media, 100% viability).

[1] = test system: subcutaneous A549 tumor implanted in nude mice; test: In vivo therapeutic efficiency (tumor delay, survival, weight, H&E histology); details: 2-week post treatment, single IV dose, cisplatin 3 mg/kg
Method: Nude mice (NU/J) aged 5-6 weeks were purchased from Jacksons Laboratory. Briefly, 2×10^6 A549 cells in 200 μL of Matrigel (Corning, NY) were injected subcutaneously in athymic nude mice. Tumor volumes were checked at regular intervals of 3 days and treatment started when the volume reached ˜300 mm3. Tumor volumes were measured using a standard Vernier Calipers. All procedures involving experimental animals were performed in accordance with the protocols approved by the University of Texas at Arlington Institutional Animal Care and Use Committee.
Xenograft tumors as described above were used to evaluate the therapeutic efficiency of CAR-T-MNPs. After the tumor reached ˜300 mm3, the mice were randomly distributed into 4 groups (n=3) for different treatment groups. Prior to treatment, all mice were ear-tagged, the initial tumor volumes were measured by a caliper, and the body weights were recorded. The treatment groups received a single tail-vein IV administration of either of 200 μL of saline (control), free drug, Jurkat-T-MNPs or CAR-T-MNPs. Tumor volume was measured every 2-3 days via a caliper. Tumor volumes were calculated by measuring the tumor perpendicular diameters with a caliper and calculated using the formula V=½×a×b2, where a and b are the longest diameter and its longest perpendicular diameter, respectively. […]

A549 cells = test: In vitro cytotoxicity (MTT) on A549; format: cell-based; details: Homo sapiens, afatinib: 48 hour exposure, read-out: IC50 (half maximal inhibitory concentration)
Method: as §1

MDA-MB-231 cells = test: In vitro cytotoxicity (MTT) on MDA-MB-231; format: cell-based; details: Homo sapiens; MDA-MB-231, 48 hour exposure
Method: as §1

| SMILES | IC50 (SKOV-3 cells; afatinib: 48 hour exposure) [µM] | tumor volume [1] | IC50 (SKOV-3 cells; Homo sapiens, SK-OV-3, afatinib: 48 hour exposure) [µM] | IC50 (A549 cells) [µM] | IC50 (MDA-MB-231 cells) [µM] |
| --- | --- | --- | --- | --- | --- |
| N.N.[Cl][Pt][Cl] [cisplatin, Cisplatin] | 4 | increasing trend | – | – | – |
| CN(C)C/C=C/C(=O)Nc1cc2c(Nc3ccc(F)c(Cl)c3)ncnc2cc1O[C@H]1CCOC1 [afatinib, Afatinib] | – | – | ~1.4 | ~4.3 | ~3.7 |
